Measured values: US9422336B2 (priority 2012, dated 2016)

Experiments:
[1] = test system: acute visceral pain model in mice; test: acute visceral pain model in mice (acetic acid writhing); details: n=6
[2] = test system: sciatic nerve injured limb (hyperalgesia); test: thermal test (paw withdrawal latency) after partial sciatic nerve injury; assay type: in vivo, C57BL/6 male mice; details: 2 mg i.p., N=6; for temperature-induced pain, paw withdrawal latency: injured limb, day 5, 10 and 30 after surgery, vs untreated (DMSO solvent), FIG. 5
Procedure: (§1) Surgical procedures were performed under Halothane (2-3%) anesthesia. Partial sciatic nerve injury was made by tying a tight ligature with 9-0 silk suture around ⅓ to ½ the diameter of the sciatic nerve, as had been described (Malmberg A B and Basbaum A I. Pain 1998; 76:215-222). In mice with sham operation, the sciatic nerve was exposed but not ligated. The mice were subsequently habituated to the test environment for at least 1 hour before thermal test and von Foley hair test. In thermal test, the paw withdrawal latency was determined as an indicator for pain. […], the stimulus intensity was adjusted to give a 10-second withdrawal latency in the normal mouse, while the cutoff in the absence of a response was 20 seconds. The mechanical sensitivity with von Foley hairs was assessed by the up-down paradigm (Chaplan et al, J Neurosci Methods 1994; 53:53-66). The filament for the testing paradigm was chosen to be 0.3-gm.
(§2) The peptide 5 as shown in SEQ ID NO: 5 was tested for its anti-hyperalgesia effects in mice receiving sciatic nerve ligation. Results from the thermal test of the sham operated mice and the nerve injured mice were compared in parallel on day 5, 10 and 30 after the surgery.

[3] = test system: sciatic nerve injured limb (allodynia); test: von Foley hair test (mechanical stimulation) after partial sciatic nerve injury; assay type: in vivo, C57BL/6 male mice; details: 2 mg i.p., N=6 per time point
Procedure: as §1
as §2, with “The same animal model in example 3 was used. The” for “The”, “anti-allodynia” for “anti-hyperalgesia”, “mechanical stimulation (von Foley test)” for “thermal test”

H5N1 viruses = assay type: cell-based, influenza A virus H5N1; details: 0.001-10 μM; MDCK monolayer; 5,000 pfu/ml; 3 days; FIG. 7 left panel
H1N1 viruses = assay type: cell-based, influenza A virus H1N1; details: 0.001-10 μM; MDCK monolayer; 5,000 pfu/ml; 3 days; FIG. 7 right panel

| Compound | p, onset of pain, peptide 5 vs this substance ([1]; peptides 2 mg, morphine 1 mg i.p., FIG. 3) | p, total writhing number in 30 minutes, peptide 5 vs this substance ([1]; peptides 2 mg, morphine 1 mg i.p., FIG. 4) | p (ANOVA), paw withdrawal latency, untreated vs treated injured ipsilateral limb ([2]; day 5, 10 or 30) | temperature-induced pain, paw withdrawal latency [2] | temperature-induced pain, paw withdrawal latency ([2]; listed as peptide 5) | p (ANOVA), von Foley hair threshold, untreated vs treated injury-ipsilateral limb ([3]; day 5, 10 or 30) | allodynia, von Foley hair threshold ([3]; injured limb, day 5, 10 and 30 after surgery, vs untreated (pure water), FIG. 6, listed as peptide 5) | inhibition of replication of H5N1 viruses in vitro (H5N1 viruses) | inhibition of replication of H1N1 viruses in vitro (H1N1 viruses) | onset of the pain induced by intra-peritoneal injection of acetic acid (onset of the 1st writhing) ([1]; 2 mg peptide i.p. 30 min before 1 ml 1% acetic acid i.p., control water alone, FIG. 3) | total writhing number in 30 minutes after acetic acid injection ([1]; 2 mg peptide i.p. 30 min before 1 ml 1% acetic acid i.p., control water alone, FIG. 4) | total writhing number in 30 minutes after acetic acid injection ([1]; 2 mg peptide i.p. 30 min before 1 ml 1% acetic acid i.p., control water alone, FIG. 4, listed as peptide 5) |
| --- | --- | --- | --- | --- | --- | --- | --- | --- | --- | --- | --- | --- |
| CN1CC[C@]23c4c5ccc(O)c4O[C@H]2[C@@H](O)C=C[C@H]3[C@H]1C5 [morphine, reference compound] | > 0.05 | > 0.05 | – | – | – | – | – | – | – | – | – | – |
| DEAQETAVSSHEQD ((1)..(14) residues 1-14 of rabbit alpha1-antiproteinase F; listed as Oryctolagus cuniculus) [Peptide 5] | – | – | < 0.005 | significantly reduced the temperature-induced pain | significantly increase the tolerance to the heat-induced pain | < 0.005 | significantly increase the tolerance to mechanical stimuli | potent effects in inhibiting the replication | potent effects in inhibiting the replication | significant delay in the onset of the pain | significant reduction in the total writhing number | reduced total writhing episodes |
